The values that follow come from PMC6445242, “Novel tetrazole and cyanamide derivatives as inhibitors of cyclooxygenase-2 enzyme: design, synthesis, anti-inflammatory evaluation, ulcerogenic liability and docking study” (Journal of Enzyme Inhibition and Medicinal Chemistry, 2017).

The pIC50 is −log10 of the IC50, conventionally taken in molar units. A higher pIC50 goes with a small IC50. Usually melting point stands for the temperature of the solid-liquid transition.

One series addresses T1, ovine COX-1 (Ovis aries, UniProt P05979).
T1 sequence (P05979 25-600): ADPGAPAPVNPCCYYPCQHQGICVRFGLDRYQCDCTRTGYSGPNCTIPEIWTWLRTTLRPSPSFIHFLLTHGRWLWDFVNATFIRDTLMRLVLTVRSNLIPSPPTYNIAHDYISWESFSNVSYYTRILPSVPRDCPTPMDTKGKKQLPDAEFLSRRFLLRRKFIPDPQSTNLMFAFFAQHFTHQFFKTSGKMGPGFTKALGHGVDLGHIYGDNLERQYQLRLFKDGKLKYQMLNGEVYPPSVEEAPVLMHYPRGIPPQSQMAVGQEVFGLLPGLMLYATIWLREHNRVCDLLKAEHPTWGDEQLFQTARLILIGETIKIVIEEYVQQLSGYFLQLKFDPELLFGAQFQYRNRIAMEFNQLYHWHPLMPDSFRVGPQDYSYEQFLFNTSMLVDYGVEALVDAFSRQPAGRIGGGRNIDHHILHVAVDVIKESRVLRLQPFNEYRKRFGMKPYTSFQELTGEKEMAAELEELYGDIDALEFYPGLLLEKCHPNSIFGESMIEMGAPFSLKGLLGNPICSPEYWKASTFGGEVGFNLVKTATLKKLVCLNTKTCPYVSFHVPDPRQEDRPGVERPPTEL
The series can be described thus: In vitro COX-1 inhibition assay (EIA kit, Cayman).

The test system of the next series is abdominal writhings. The series can be described thus: Acetic acid-induced writhing test (peripheral analgesic activity). The following applies: 10 mg/kg oral, mice, 0.6% acetic acid i.p. On the technique in general: In writhing tests, fewer writhes than in controls are read as antinociception.
For series [1], the system named is carrageenan-induced paw oedema. The series can be described thus: Carrageenan-induced rat paw oedema. The series is classed as in vivo. As to conditions: 50 mg/kg oral; for %Inhibition of paw oedema, 1h / Paw thickness change mean ± SEM, 1h: 1 h after carrageenan; for Paw thickness change mean ± SEM, 1h / Paw thickness change mean ± SEM, 3h / Paw thickness change mean ± SEM, 5h: n = 4; for %Inhibition of paw oedema, 3h / Paw thickness change mean ± SEM, 3h: 3 h after carrageenan; for %Inhibition of paw oedema, 5h / Paw thickness change mean ± SEM, 5h: 5 h after carrageenan. As to the method: Female wister rats (150-200 g) were used in this study. The animals were kept at controlled conditions (temperature 23 ± 2 °C, humidity 60 ± 10%) and a 12/12-h light/dark cycle with access to food and water. All procedures relating to animal care and treatments were performed according to protocols approved by the Research Ethical Committee of Faculty of Pharmacy Beni-Suef University (2014-Beni-Suef, Egypt). The anti-inflammatory activity of the synthesised compounds was determined in vivo by […]-induced paw oedema method in rats[49]. Rats were divided into 21 groups of four animals each, and then, they were fasted overnight with free access to water before the experiment. Before any drug administration, thickness of the left hind paw of each rat was measured in millimetres. Group 1 served as a control and administered the vehicle (2.5% Tween 80).

The target in the next series is T2, ovine COX-2 (Ovis aries, UniProt P79208).
T2 sequence (P79208 17-603): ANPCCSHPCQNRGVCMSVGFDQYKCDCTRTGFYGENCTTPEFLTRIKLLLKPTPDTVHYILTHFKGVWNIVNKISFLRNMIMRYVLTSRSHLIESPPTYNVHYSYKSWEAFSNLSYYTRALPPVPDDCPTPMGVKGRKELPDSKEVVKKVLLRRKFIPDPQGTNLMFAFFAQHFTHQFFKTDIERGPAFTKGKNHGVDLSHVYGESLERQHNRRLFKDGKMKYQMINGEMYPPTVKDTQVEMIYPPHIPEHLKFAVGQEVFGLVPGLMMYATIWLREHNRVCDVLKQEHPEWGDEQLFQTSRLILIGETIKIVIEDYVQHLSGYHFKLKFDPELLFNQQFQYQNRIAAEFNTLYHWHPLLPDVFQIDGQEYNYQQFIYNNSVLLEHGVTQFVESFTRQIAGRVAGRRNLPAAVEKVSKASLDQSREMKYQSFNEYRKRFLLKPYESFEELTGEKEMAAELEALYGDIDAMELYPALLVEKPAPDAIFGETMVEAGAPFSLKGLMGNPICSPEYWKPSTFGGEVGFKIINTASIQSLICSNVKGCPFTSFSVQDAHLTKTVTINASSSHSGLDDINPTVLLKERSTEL
The series can be described thus: In vitro COX-2 inhibition assay (EIA kit, Cayman). The following applies: for pIC50: IC50 COX-2, ovine COX-2, mean of two determinations; for SI, COX-2 selectivity index (COX-1 IC50/COX-2 IC50): ovine enzymes.

The next series has as its system rat's gastric tissue. Briefly: Histopathological investigation of stomach. The class given is in vivo. As to conditions: haematoxylin and eosin, after ulcerogenic liability dosing. As to the method: Whole rats stomach were collected, selected stomach samples from each rat were fixed in 10% neutral buffered formalin for 48 h and routinely processed for paraffin embedding. 5 μm Thickness sections were obtained then stained with haematoxylin and eosin for histopathological evaluation.

Series [2] concerns gastric mucosa (ulcer number, ulcer index). Briefly: Ulcerogenic liability. The series is classed as in vivo, rat. The following applies: 50 mg/kg oral, three successive days, rats; for Ulcer index: sum of % incidence, average severity and average number of ulcers. As to the method: Female wister rats (150–200 g) were used in this study. The animals were kept at controlled conditions (temperature 23 ± 2 °C, humidity 60 ± 10%) and a 12/12-h light/dark cycle with access to food and water. All procedures relating to animal care and treatments were performed according to protocols approved by the Research Ethical Committee of Faculty of Pharmacy Beni-Suef University (2014-Beni-Suef, Egypt).
[…]. Forty-eight rats were used in this study, divided into 12 groups and fasted for 18 h before drug administration. The control group received the vehicle (2.5% Tween 80). Other groups received test compounds, celecoxib or indomethacin at a dose of 50 mg/kg, then animals were fed after 2 h. Rats were given the specified dose orally for three successive days. Rats were sacrificed after 2 h of the last dose, then the stomach of each rat was removed and opened along the greater curvature for determination of the ulcer number and ulcer index according to the reported method.

Series [3] deals with latency time of pain response. Briefly: Hot plate method (central analgesic activity). The series is classed as in vivo. The following applies: 10 mg/kg oral, mice, hot plate 55 °C, after 60 min. As to the method:
This method was used to evaluate the central analgesic activity by determination of the delay in the latency time of pain response. […] After 60 min, the animals were placed on a hot plate maintained at 55 ± 0.5 °C. The reaction time was recorded as the time taken by the animals to […] or lick the fore or hind paw or jump off the plate.
(In hot-plate and tail-flick tests a longer latency is read as antinociception.)

For series [4] the following is noted: cited from earlier work.
The subject of the next series is COX-2. The following applies: cited from earlier work.

pIC50: −log10 of the molar value. “Also recorded” adds a separate entry of the source.

From the text for abdominal writhings: Pain was induced by intraperitoneal injection of acetic acid, then counting the number of abdominal writhings.
Method for ovine COX-1: (§1) The peroxidase activity of cyclooxygenase enzyme isoforms was measured using the COX activity assay kit. The ability of the test compounds to inhibit both ovine COX-1 and COX-2 enzymes was explored in vitro using a colorimetric enzyme immunoassay (EIA) kit. The appearance of oxidised N,N,N′,N′-tetramethyl-p-phenylenediamine (TMPD) was monitored at 590 nm. The kit includes isozyme-specific inhibitors for distinguishing COX-2 activity from that of COX-1.
Method for ovine COX-2: as §1

`CN(C)c1ccc(-c2cc(-c3ccc(-n4cnnn4)cc3)[nH]c(=O)c2C#N)cc1` [Compound 5d, 6-[4-(1H-Tetrazol-1-yl)phenyl]-4-[4-(dimethylamino)phenyl]-2-oxo-1,2-dihydropyridine-3-carbonitrile] yielded a melting point of 263 to 265 °C. This compound showed a pIC50 against ovine COX-1 of 4.95. In addition, the “Peripheral analgesic activity (writhing)” value in the series on abdominal writhings is on record as “most active”. In addition, in series [1], the “%Inhibition of paw oedema, 1h” value was 71%; the “Paw thickness change mean ± SEM, 1h” value came out at 0.45 ± 0.10 mm; the “%Inhibition of paw oedema, 3h” value is 63%; the “Paw thickness change mean ± SEM, 3h” value turned out to be 0.61 ± 0.12 mm. For the same compound, in series [1], the “%Inhibition of paw oedema, 5h” value is 43% and the “Paw thickness change mean ± SEM, 5h” value is given as 0.76 ± 0.15 mm. Further, at ovine COX-2, the pIC50 was 6.35 and the “SI, COX-2 selectivity index (COX-1 IC50/COX-2 IC50)” value worked out at 25.13. Also, the “Histopathological findings in stomach” value with rat's gastric tissue is “Mucous degeneration in gastric glandular epithelium, thickening and hyalinosis of basement membrane, as well as eosinophilic infiltrations in submucosa”. In series [2], the “Average number of ulcers” value stood at 1.25 and the Ulcer index is reported as 1.50.
`COc1ccc(-c2cc(-c3ccc(-n4cnnn4)cc3)[nH]c(=O)c2C#N)cc1OC` [Compound 5e, 6-[4-(1H-Tetrazol-1-yl)phenyl]-4-(3,4-dimethoxyphenyl)-2-oxo-1,2-dihydropyridine-3-carbonitrile] came in with a melting point of 272 to 274 °C. The pIC50 against ovine COX-1 was 5.15. For the same compound, the “Peripheral analgesic activity (writhing)” value with abdominal writhings is on record as “most active”. Further, in series [1], the “%Inhibition of paw oedema, 1h” value was determined as 71%; the “Paw thickness change mean ± SEM, 1h” value is 0.45 ± 0.16 mm; the “%Inhibition of paw oedema, 3h” value worked out at 42%; the “Paw thickness change mean ± SEM, 3h” value is 0.98 ± 0.03 mm. Besides, in [1], the “%Inhibition of paw oedema, 5h” value worked out at 49% and the “Paw thickness change mean ± SEM, 5h” value is on record as 0.68 ± 0.08 mm. On ovine COX-2, the “SI, COX-2 selectivity index (COX-1 IC50/COX-2 IC50)” value was determined as 37.57. Besides, the “Histopathological findings in stomach” value with rat's gastric tissue was “affect only muscular layer of the stomach by causing corrugation and hyalinosis in some muscle bundles and reach to coagulative necrosis”. For the same compound, in series [2], the “Average number of ulcers” value is given as 1.00 and the Ulcer index worked out at 1.25. The “Central analgesic activity (delay in latency time)” value in series [3] is reported as “potent analgesic activities”.
In turn, `COc1cc(C2CC(c3ccc(-n4cnnn4)cc3)=NN2c2ccc(S(C)(=O)=O)cc2)cc(OC)c1OC` (centres unmarked) [Compound 8b] returned a melting point of 241 to 243 °C. Moreover, the negative logarithm of the IC50 (pIC50) at ovine COX-1 was 5.41. For the same compound, in [1], the “%Inhibition of paw oedema, 1h” value came to 71%; the “Paw thickness change mean ± SEM, 1h” value turned out to be 0.45 ± 0.10 mm; the “%Inhibition of paw oedema, 3h” value stood at 48%; the “Paw thickness change mean ± SEM, 3h” value is recorded as 0.88 ± 0.09 mm. Further, in series [1], the “%Inhibition of paw oedema, 5h” value came out at 38% and the “Paw thickness change mean ± SEM, 5h” value stood at 0.83 ± 0.17 mm. The “SI, COX-2 selectivity index (COX-1 IC50/COX-2 IC50)” value at ovine COX-2 was determined as 35.18. For the same compound, the “Histopathological findings in stomach” value in the series on rat's gastric tissue is “massive destruction of localised area of epithelium with formation of an erosion associated with hyalinosis and necrosis of muscular layer”. In series [2], the “Average number of ulcers” value was determined as 0.75 and the Ulcer index worked out at 0.75. The “Central analgesic activity (delay in latency time)” value in [3] was “potent analgesic activities”.
In turn, `COc1ccc(C2CC(c3ccc(-n4cnnn4)cc3)=NN2c2ccc(S(N)(=O)=O)cc2)cc1OC` (centres unmarked) [Compound 9a, 4-{3-[4-(1H-Tetrazol-1-yl)phenyl]-5-(3,4-dimethoxyphenyl)-4,5-dihydro-1H-pyrazol-1-yl)benzenesulphonamide] yielded a melting point of 226 to 228 °C. The negative logarithm of the IC50 (pIC50) at ovine COX-1 was 5.15. Also, the “Peripheral analgesic activity (writhing)” value in the series on abdominal writhings was “most active”. Moreover, in series [1], the “%Inhibition of paw oedema, 1h” value is 75%; the “Paw thickness change mean ± SEM, 1h” value is reported as 0.40 ± 0.00 mm; the “%Inhibition of paw oedema, 3h” value was determined as 39%; the “Paw thickness change mean ± SEM, 3h” value came to 1.03 ± 0.09 mm. Besides, in [1], the “%Inhibition of paw oedema, 5h” value came to 19% and the “Paw thickness change mean ± SEM, 5h” value came out at 1.08 ± 0.20 mm. On ovine COX-2, the pIC50 is 6.48 and the “SI, COX-2 selectivity index (COX-1 IC50/COX-2 IC50)” value came to 21.54. In addition, the “Histopathological findings in stomach” value in the series with rat's gastric tissue is “sever congestion in blood capillaries and lymphocytic infiltration; also recorded: caused destructive effect on the mucosa and ulceration”. Besides, in [2], the “Average number of ulcers” value is recorded as 1.25 and the Ulcer index was 2.00.
As for `O=C1OCC(c2ccc(-c3nnn[nH]3)cc2)=C1c1ccccc1` [VI], the “Gastric ulceration side effect” value in series [4] is given as “lacked the side effect of gastric ulceration”. For the same compound, in the series with COX-2, the “COX-2/COX-1 selectivity (SI)” value is 2.11.
For `Cc1ccc(-c2cc(C(F)(F)F)nn2-c2ccc(-c3nnn[nH]3)cc2)cc1` [V], in series [4], the “Gastric ulceration side effect” value is reported as “lacked the side effect of gastric ulceration”. For the same compound, the “COX-2/COX-1 selectivity (SI)” value in the series on COX-2 is listed as 2.16.
